Test results: ChEMBL document CHEMBL4834482, “Concise solid-phase synthesis enables derivatisation of YEATS domain cyclopeptide inhibitors for improved cellular uptake” (Bioorg Med Chem, 2021)

Legend:
Protein AF-9 [1] = biological target: T1, Protein AF-9 (Homo sapiens, UniProt P42568); experiment: Inhibition of AF9 YEATS domain (1 to 138 residues) (unknown origin) assessed as inhibition of probe-1 induced AF9 YEATS domain labelling incubated for 10 mins followed by UV-irradiation for 20 mins by Photo-cross linking based In-gel fluorescence scanning analysis
T1 sequence (P42568 whole entry): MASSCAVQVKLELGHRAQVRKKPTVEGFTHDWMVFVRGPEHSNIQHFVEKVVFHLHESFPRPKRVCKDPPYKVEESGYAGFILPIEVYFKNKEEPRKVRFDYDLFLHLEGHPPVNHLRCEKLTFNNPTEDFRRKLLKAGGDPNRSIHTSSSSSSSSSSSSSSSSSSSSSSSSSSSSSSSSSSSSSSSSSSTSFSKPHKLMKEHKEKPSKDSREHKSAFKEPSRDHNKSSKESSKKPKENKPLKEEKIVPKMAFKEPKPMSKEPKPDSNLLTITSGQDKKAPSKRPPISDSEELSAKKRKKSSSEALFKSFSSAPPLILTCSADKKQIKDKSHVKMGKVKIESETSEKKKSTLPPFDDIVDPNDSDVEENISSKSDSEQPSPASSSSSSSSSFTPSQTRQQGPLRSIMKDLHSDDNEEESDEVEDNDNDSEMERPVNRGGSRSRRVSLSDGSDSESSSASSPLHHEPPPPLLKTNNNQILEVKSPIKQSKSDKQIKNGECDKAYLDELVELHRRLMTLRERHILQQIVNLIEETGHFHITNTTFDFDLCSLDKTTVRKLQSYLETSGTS

Protein AF-9 [2] = biological target: T1, Protein AF-9; experiment: Binding affinity to AF9 YEATS domain (1 to 138 residues) (unknown origin) by isothermal titration calorimetry

| IC50 (Protein AF-9 [1]) [nM] | Kd (Protein AF-9 [2]) [nM] | Compound |
| --- | --- | --- |
| 410 | 370 | C[C@@H]1NC(=O)[C@H]([C@H](C)O)NC(=O)[C@@H](NC(=O)OCc2ccccc2)CCCCNC(=N)NCCC[C@H](C(=O)N[C@@H](CCCCNC(=O)c2cnco2)C(N)=O)NC1=O |
| 1740 | 800 | CC(=O)N[C@@H](Cc1ccc(O)cc1)C(=O)NCC(=O)N[C@@H](CCCNC(=N)N)C(=O)N[C@@H](CCCCN)C(=O)N[C@@H](CCCCN)C(=O)N[C@@H](CCCNC(=N)N)C(=O)N[C@@H](CCCNC(=N)N)C(=O)N[C@@H](CCC(N)=O)C(=O)N[C@@H](CCCNC(=N)N)C(=O)N[C@@H](CCCNC(=N)N)C(=O)N[C@@H](CCCNC(=N)N)C(=O)NCCCC[C@@H]1NC(=O)[C@H]([C@@H](C)O)NC(=O)[C@@H](NC(=O)OCc2ccccc2)CCCCNC(=N)NCCC[C@@H](C(=O)N[C@@H](CCCCNC(=O)c2cnco2)C(N)=O)NC1=O |
